Values after ≈ are worked out from the molar mass of the structure shown. Read-outs that look alike come from different tables or passages of the source.
Columns and labels:
[1] = system: M. tuberculosis biofilm; experiment: M. tuberculosis biofilm formation inhibition (crystal violet staining); format: cell-based, Mycobacterium tuberculosis; details: for overall activity against M. tuberculosis: biofilm inhibition, normal growth inhibition and antibiotic synergism assays, preliminary results
Protocol: FIG. 1A-D. Anti-M. tuberculosis biofilm activity of 6-treAz (6-azido-6-deoxy-D-trehalose). The effects of various concentrations of 6-treAz treatment on M. tuberculosis biofilms were monitored by crystal violet (CV) staining assay (A and B). […] The effect of 6-treAz on TreS mediated maltose production. Y-axis is the amount of maltose produced (D).
Planktonic growth and biofilm assays. Evaluation of planktonic growth and biofilm formation inhibition for M. smegmatis was carried out as previously reported for other trehalose analogues (Carbohydr. Res. 2017, 450, 60-66). Evaluation of planktonic growth and biofilm formation inhibition for M. tuberculosis was carried out as previously reported for 6-TreAz (Nat. Commun., 2019, 2928-2928).

[2] = system: M. smegmatis biofilm; experiment: M. smegmatis biofilm formation inhibition; format: cell-based, Mycobacterium smegmatis
[3] = system: M. tuberculosis; experiment: M. tuberculosis planktonic growth inhibition; format: cell-based, Mycobacterium tuberculosis
[4] = system: M. tuberculosis; details: cited from earlier work
[5] = system: M. smegmatis; details: cited from earlier work
[6] = system: H37Rv lab strain (M. tuberculosis); format: cell-based, Mycobacterium tuberculosis; details: for IC95 2-treNH2: antibiotic in combination with 2-treNH2; for IC95 4-treNH2: antibiotic in combination with 4-treNH2; for IC95 6-treNH2: antibiotic in combination with 6-treNH2
[7] = system: M. aurum; details: cited from earlier work
[8] = molecular target: TreS (trehalose synthase) (Mycobacterium tuberculosis, UniProt P9WQ19); experiment: In vitro TreS assay (maltose production, LC-MS); format: biochemical, M. tuberculosis; details: 100 μM compound, in vitro TreS enzyme reaction
Sequence of TreS (trehalose synthase) (P9WQ19 whole entry, looked up): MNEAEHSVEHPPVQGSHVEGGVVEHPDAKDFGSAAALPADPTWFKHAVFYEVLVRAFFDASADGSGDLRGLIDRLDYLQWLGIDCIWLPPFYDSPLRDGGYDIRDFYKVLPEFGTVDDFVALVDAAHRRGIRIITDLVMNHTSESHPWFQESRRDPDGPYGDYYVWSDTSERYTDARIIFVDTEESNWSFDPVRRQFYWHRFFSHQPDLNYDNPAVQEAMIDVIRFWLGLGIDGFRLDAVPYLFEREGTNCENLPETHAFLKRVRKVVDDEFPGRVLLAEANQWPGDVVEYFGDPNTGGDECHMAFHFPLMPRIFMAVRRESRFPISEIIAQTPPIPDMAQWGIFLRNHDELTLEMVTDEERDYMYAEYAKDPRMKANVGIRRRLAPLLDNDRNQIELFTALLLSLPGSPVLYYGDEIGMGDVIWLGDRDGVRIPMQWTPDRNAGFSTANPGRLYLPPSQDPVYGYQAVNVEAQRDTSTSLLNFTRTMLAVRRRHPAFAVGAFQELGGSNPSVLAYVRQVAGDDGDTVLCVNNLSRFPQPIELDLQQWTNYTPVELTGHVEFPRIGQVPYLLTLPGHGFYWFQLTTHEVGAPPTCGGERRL
Protocol: In vitro TreS assay. TreS activity was measured using a 100 μL in vitro enzyme reaction containing 40 mM MOPS (pH 7.0), 10 mM trehalose, and 20 ng of purified TreS enzyme in the presence or absence of 6-treAz or validamycin A (a known TreS inhibitor). The reaction was initiated by adding TreS enzyme, incubated at 37° C., and then quenched by heating and adding acetonitrile containing 0.2% formic acid. After centrifugation, supernatants were used for LC-MS to quantify maltose product.

[9] = system: M. tuberculosis trehalose catalytic shift (metabolome); experiment: Metabolomics profiling / trehalose catalytic shift; format: cell-based, Mycobacterium tuberculosis; details: M. tuberculosis biofilm, trehalose accumulation, depletion of maltose, glucose-P, sedoheptulose-P
[10] = system: M. smegmatis biofilm; details: cited from earlier work
[11] = M. tuberculosis IC95 shift assay

N[C@@H]1[C@@H](O[C@H]2O[C@H](CO)[C@@H](O)[C@H](O)[C@H]2O)O[C@H](CO)[C@@H](O)[C@@H]1O [2-epi-TreNH2, (2R,3R,4S,5S,6R)-2-(((2R,3S,4R,5S,6R)-3-amino-4,5-dihydroxy-6-(hydroxymethyl)tetrahydro-2H-pyran-2-yl)oxy)-6-(hydroxymethyl)tetrahydro-2H-pyran-3,4,5-triol]
inhibition of M. tuberculosis biofilm formation [1]: do not
inhibition of M. smegmatis biofilm formation [2]: no inhibitory effects
inhibition of M. tuberculosis planktonic growth [3]: no inhibitory effects

[N-]=[N+]=N[C@@H]1[C@@H](O[C@H]2O[C@H](CO)[C@@H](O)[C@H](O)[C@H]2O)O[C@H](CO)[C@@H](O)[C@@H]1O [2-epi-TreAz, (2R,3R,4S,5S,6R)-2-(((2R,3S,4R,5S,6R)-3-azido-4,5-dihydroxy-6-(hydroxymethyl)tetrahydro-2H-pyran-2-yl)oxy)-6-(hydroxymethyl)tetrahydro-2H-pyran-3,4,5-triol]
inhibition of M. tuberculosis biofilm formation [1]: can inhibit
inhibition of M. tuberculosis biofilm formation ([1]; at 1 mM): completely blocks
overall activity against M. tuberculosis [1]: most potent
inhibition of M. tuberculosis biofilm formation ([1]; listed as Epi-2-TreAz): completely inhibits
inhibition of M. smegmatis biofilm formation [2]: selectively inhibits
inhibition of M. smegmatis biofilm formation ([2]; at 1 mM): selectively blocks
inhibition of M. tuberculosis planktonic growth [3]: can inhibit
inhibition of M. tuberculosis planktonic growth ([3]; at 1 mM): completely blocks
inhibition of M. tuberculosis planktonic growth ([3]; listed as Epi-2-TreAz): completely inhibits

NC[C@H]1O[C@H](O[C@H]2O[C@H](CO)[C@@H](O)[C@H](O)[C@H]2O)[C@H](O)[C@@H](O)[C@@H]1O [6-TreNH2, (2R,3S,4S,5R,6R)-2-(aminomethyl)-6-(((2R,3R,4S,5S,6R)-3,4,5-trihydroxy-6-(hydroxymethyl)tetrahydro-2H-pyran-2-yl)oxy)tetrahydro-2H-pyran-3,4,5-triol]
inhibition of M. tuberculosis biofilm formation [1]: no inhibitory effect
inhibition of M. tuberculosis planktonic growth [3]: no inhibitory effect
inhibition of M. tuberculosis planktonic growth (previous research) [4]: did not exhibit inhibition

N[C@H]1[C@H](O)[C@@H](O)[C@@H](O[C@H]2O[C@H](CO)[C@@H](O)[C@H](O)[C@H]2O)O[C@@H]1CO [4-TreNH2, (2R,3R,4S,5S,6R)-2-(((2R,3R,4S,5S,6S)-5-amino-3,4-dihydroxy-6-(hydroxymethyl)tetrahydro-2H-pyran-2-yl)oxy)-6-(hydroxymethyl)tetrahydro-2H-pyran-3,4,5-triol]
inhibition of M. tuberculosis biofilm formation [1]: inhibit
inhibition of M. smegmatis planktonic growth (previous research) [5]: did not exhibit inhibition
inhibition of M. smegmatis biofilm formation [2]: did not exhibit activity
inhibition of M. tuberculosis planktonic growth [3]: inhibits

N[C@@H]1[C@H](O)[C@@H](O)[C@@H](O[C@H]2O[C@H](CO)[C@@H](O)[C@H](O)[C@H]2O)O[C@@H]1CO [4-epi-TreNH2, (2R,3R,4S,5S,6R)-2-(((2R,3R,4S,5R,6S)-5-amino-3,4-dihydroxy-6-(hydroxymethyl)tetrahydro-2H-pyran-2-yl)oxy)-6-(hydroxymethyl)tetrahydro-2H-pyran-3,4,5-triol]
inhibition of M. tuberculosis biofilm formation [1]: do not
inhibition of M. smegmatis biofilm formation [2]: no inhibitory effects
inhibition of M. tuberculosis planktonic growth [3]: no inhibitory effects

[N-]=[N+]=N[C@@H]1[C@H](O)[C@@H](O)[C@@H](O[C@H]2O[C@H](CO)[C@@H](O)[C@H](O)[C@H]2O)O[C@@H]1CO [4-epi-TreAz, (2R,3R,4S,5S,6R)-2-(((2R,3R,4S,5R,6S)-5-azido-3,4-dihydroxy-6-(hydroxymethyl)tetrahydro-2H-pyran-2-yl)oxy)-6-(hydroxymethyl)tetrahydro-2H-pyran-3,4,5-triol]
inhibition of M. tuberculosis biofilm formation [1]: do not
inhibition of M. smegmatis biofilm formation [2]: no inhibitory effects
inhibition of M. tuberculosis planktonic growth [3]: no inhibitory effects

CO[C@H]1/C=C/O[C@@]2(C)Oc3c(C)c(O)c4c(O)c(c(/C=N/N5CCN(C)CC5)c(O)c4c3C2=O)NC(=O)/C(C)=C\C=C\[C@H](C)[C@H](O)[C@@H](C)[C@@H](O)[C@@H](C)[C@H](OC(C)=O)[C@@H]1C [RIF, rifampicin]
IC95 WT [6]: 0.18 µg/mL (≈ 0.219 µM)
IC95 2-treNH2 ([6]; H37Rv): 0.09 µg/mL
IC95 4-treNH2 ([6]; H37Rv): 0.14 µg/mL
IC95 6-treNH2 ([6]; H37Rv): 0.24 µg/mL

[N-]=[N+]=N[C@H]1[C@H](O)[C@@H](O)[C@@H](O[C@H]2O[C@H](CO)[C@@H](O)[C@H](O)[C@H]2O)O[C@@H]1CO [4-TreAz, (2R,3R,4S,5S,6R)-2-(((2R,3R,4S,5S,6S)-5-azido-3,4-dihydroxy-6-(hydroxymethyl)tetrahydro-2H-pyran-2-yl)oxy)-6-(hydroxymethyl)tetrahydro-2H-pyran-3,4,5-triol]
overall activity against M. tuberculosis [1]: did not show activity
inhibition of M. smegmatis planktonic growth (previous research) [5]: did not exhibit inhibition
overall activity against M. smegmatis ([2]; biofilm inhibition, normal growth inhibition and antibiotic synergism assays): did not show activity

[N-]=[N+]=N[C@H]1[C@@H](O[C@H]2O[C@H](CO)[C@@H](O)[C@H](O)[C@H]2O)O[C@H](CO)[C@@H](O)[C@@H]1O [2-TreAz, (2R,3R,4S,5S,6R)-2-(((2R,3R,4R,5S,6R)-3-azido-4,5-dihydroxy-6-(hydroxymethyl)tetrahydro-2H-pyran-2-yl)oxy)-6-(hydroxymethyl)tetrahydro-2H-pyran-3,4,5-triol]
overall activity against M. tuberculosis [1]: top candidate
inhibition of M. smegmatis planktonic growth (previous research) [5]: exhibited planktonic growth inhibition

COc1nc2ccc(Br)cc2cc1[C@@H](c1ccccc1)[C@@](O)(CCN(C)C)c1cccc2ccccc12 [BDQ, bedaquiline]
IC95 WT [6]: 0.59 µg/mL (≈ 1.06 µM)
IC95 2-treNH2 ([6]; H37Rv): 0.78 µg/mL
IC95 4-treNH2 ([6]; H37Rv): 0.39 µg/mL
IC95 6-treNH2 ([6]; H37Rv): 0.57 µg/mL

[N-]=[N+]=N[C@@H]1[C@@H](O)[C@@H](O[C@H]2O[C@H](CO)[C@@H](O)[C@H](O)[C@H]2O)O[C@H](CO)[C@H]1O [3-TreAz, (2R,3R,4S,5S,6R)-2-(((2R,3R,4S,5S,6R)-4-azido-3,5-dihydroxy-6-(hydroxymethyl)tetrahydro-2H-pyran-2-yl)oxy)-6-(hydroxymethyl)tetrahydro-2H-pyran-3,4,5-triol]
inhibition of M. smegmatis planktonic growth (previous research) [5]: did not exhibit inhibition

N[C@H]1[C@@H](O[C@H]2O[C@H](CO)[C@@H](O)[C@H](O)[C@H]2O)O[C@H](CO)[C@@H](O)[C@@H]1O [2-TreNH2, (2R,3R,4S,5S,6R)-2-(((2R,3R,4R,5S,6R)-3-amino-4,5-dihydroxy-6-(hydroxymethyl)tetrahydro-2H-pyran-2-yl)oxy)-6-(hydroxymethyl)tetrahydro-2H-pyran-3,4,5-triol]
inhibition of M. tuberculosis biofilm formation [1]: inhibit
inhibition of M. smegmatis biofilm formation [2]: inhibit
antimycobacterial synergy with TB antibiotics ([6]; H37Rv, INH, RIF or BDQ, […]): antimicrobial synergy against H37Rv level similar to that of ΔtreS
effect of co-treatment on IC95 values of isoniazid (INH) or rifampicin (RIF) [6, 11]: significantly reduced
reduction of IC95 value of bedaquiline (BDQ) by co-treatment [6, 11]: not
inhibition of M. tuberculosis planktonic growth (previous research) [4]: exhibited inhibition

N[C@@H]1[C@@H](O)[C@@H](O[C@H]2O[C@H](CO)[C@@H](O)[C@H](O)[C@H]2O)O[C@H](CO)[C@H]1O [3-TreNH2, (2R,3R,4S,5S,6R)-2-(((2R,3R,4S,5S,6R)-4-amino-3,5-dihydroxy-6-(hydroxymethyl)tetrahydro-2H-pyran-2-yl)oxy)-6-(hydroxymethyl)tetrahydro-2H-pyran-3,4,5-triol]
inhibition of M. tuberculosis biofilm formation [1]: moderate inhibitor

[N-]=[N+]=NC[C@H]1O[C@H](O[C@H]2O[C@H](CO)[C@@H](O)[C@H](O)[C@H]2O)[C@H](O)[C@@H](O)[C@@H]1O [6-TreAz, (2R,3S,4S,5R,6R)-2-(azidomethyl)-6-(((2R,3R,4S,5S,6R)-3,4,5-trihydroxy-6-(hydroxymethyl)tetrahydro-2H-pyran-2-yl)oxy)tetrahydro-2H-pyran-3,4,5-triol]
inhibition of M. aurum growth (previous research) [7]: inhibit growth
inhibition of M. tuberculosis biofilm formation [1]: selective inhibitory activity
concentration that significantly interfered with M. tuberculosis biofilm formation ([1]; WT biofilm culture): at least 100 M
TreS mediated maltose production [8]: abolished
inhibition of M. smegmatis planktonic growth (previous research) [5]: inhibit growth
inhibition of the trehalose catalytic shift [9]: blocked
inhibition of the trehalose catalytic shift ([9]; listed as 6-treAz): dose-dependent inhibition
inhibition of M. tuberculosis planktonic growth [3]: no discernible effects
inhibition of M. smegmatis biofilm formation (previously known) [10]: known to inhibit
inhibition of M. tuberculosis planktonic growth (previous research) [4]: inhibit growth

NNC(=O)c1ccncc1 [INH, isoniazid]
IC95 WT [6]: 0.28 µg/mL (≈ 2.04 µM)
IC95 2-treNH2 ([6]; H37Rv): 0.21 µg/mL
IC95 4-treNH2 ([6]; H37Rv): 0.44 µg/mL
IC95 6-treNH2 ([6]; H37Rv): 0.33 µg/mL
